# In ChEMBL document CHEMBL1201862, “PubChem BioAssay data set” (2004):
# Activity calls are given as the source filed them.
# Key:
# cells [1] = assay: cells
# [2] = viability of uninfected HEp-2 cells – cell-based, HTS, cytotoxicity control for RSV inhibitor project, dose response (AID 2410); type: functional; details: human respiratory syncytial virus
# [3] = biological target: Polyadenylate-binding protein 1 (Homo sapiens, UniProt P11940); assay: blockers of PABP interaction with poly(A) – biochemical, fluorescence polarization, […] (AID 2014)
# Chain of Polyadenylate-binding protein 1 (P11940 whole entry): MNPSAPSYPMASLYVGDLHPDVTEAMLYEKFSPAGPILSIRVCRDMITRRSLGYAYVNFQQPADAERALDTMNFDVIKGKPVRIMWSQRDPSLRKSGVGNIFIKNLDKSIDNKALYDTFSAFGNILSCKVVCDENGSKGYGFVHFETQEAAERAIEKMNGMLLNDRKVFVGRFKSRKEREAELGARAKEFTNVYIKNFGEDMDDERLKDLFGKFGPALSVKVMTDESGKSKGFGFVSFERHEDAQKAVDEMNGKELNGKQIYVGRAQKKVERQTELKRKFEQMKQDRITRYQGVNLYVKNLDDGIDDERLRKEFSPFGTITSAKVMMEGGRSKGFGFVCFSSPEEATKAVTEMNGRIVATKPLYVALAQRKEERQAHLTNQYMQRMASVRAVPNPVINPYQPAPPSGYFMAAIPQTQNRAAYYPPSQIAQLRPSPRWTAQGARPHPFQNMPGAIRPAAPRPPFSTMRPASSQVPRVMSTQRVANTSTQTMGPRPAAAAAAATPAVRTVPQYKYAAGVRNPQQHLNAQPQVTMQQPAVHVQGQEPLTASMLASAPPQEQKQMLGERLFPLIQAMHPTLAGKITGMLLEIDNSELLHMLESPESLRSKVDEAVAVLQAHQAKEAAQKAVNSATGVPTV
# [4] = biological target: Eukaryotic translation initiation factor 4H (Homo sapiens, UniProt Q15056); assay: eIF4H binding inhibition – biochemical, uHTS, fluorescence polarization, translation initiation inhibitor project, primary screen (AID 2012)
# [5] = NIH3T3 cell viability loss – ATP luminescence, mouse fibroblasts, counter-screen, dose response (AID 2010); type: functional, cell-based;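 also: cells exposed to compound for about 90 hours before reading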
# [6] = Trypanosoma cruzi growth suppression in host cells – NIH3T3 host cells, beta-gal luminescence, confirmation (AID 2044); type: functional, cell-based;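 also: intracellular parasites grown in NIH/3T3 mouse fibroblasts as host cells; luminescent beta-galactosidase reporter signal from transgenic T. cruzi replicating inside host cells; inhibitors lower the luminescence signal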
# cells [7] = assay: cells; remark: listed apart in the source
# [8] = viability loss of HPDE-C7K cells – cell-based, fluorescence, HTS, primary screen (AID 431); type: functional; details: Homo sapiens
# [9] = HPDE-C7 pancreatic duct cell viability loss – fluorescence, HTS (AID 430); type: functional, cell-based; details: Homo sapiens
# [10] = A High Throughput Confirmatory Assay used to Identify Novel Compounds that Inhibit Mycobacterium Tuberculosis in the absence of Glycerol.; type: functional
# [11] = microbe, parasite or virus in culture; type: functional; details: Mycobacterium tuberculosis
# Aspartyl aminopeptidase = biological target: T1, Aspartyl aminopeptidase (Plasmodium falciparum 3D7, UniProt Q8I2J3); assay: Counterscreen for inhibitors of M1 and M17 aminopeptidases: QFRET-based biochemical high throughput dose response assay for inhibitors of the Plasmodium falciparum M18 Aspartyl Aminopeptidase (PFM18AAP). [Related PubChem assays: 1619 (Screening assay (M17LAP inhibitors).), 1445 (Screening assay (M1AAP inhibitors).)]
# T1 sequence (Q8I2J3 whole entry): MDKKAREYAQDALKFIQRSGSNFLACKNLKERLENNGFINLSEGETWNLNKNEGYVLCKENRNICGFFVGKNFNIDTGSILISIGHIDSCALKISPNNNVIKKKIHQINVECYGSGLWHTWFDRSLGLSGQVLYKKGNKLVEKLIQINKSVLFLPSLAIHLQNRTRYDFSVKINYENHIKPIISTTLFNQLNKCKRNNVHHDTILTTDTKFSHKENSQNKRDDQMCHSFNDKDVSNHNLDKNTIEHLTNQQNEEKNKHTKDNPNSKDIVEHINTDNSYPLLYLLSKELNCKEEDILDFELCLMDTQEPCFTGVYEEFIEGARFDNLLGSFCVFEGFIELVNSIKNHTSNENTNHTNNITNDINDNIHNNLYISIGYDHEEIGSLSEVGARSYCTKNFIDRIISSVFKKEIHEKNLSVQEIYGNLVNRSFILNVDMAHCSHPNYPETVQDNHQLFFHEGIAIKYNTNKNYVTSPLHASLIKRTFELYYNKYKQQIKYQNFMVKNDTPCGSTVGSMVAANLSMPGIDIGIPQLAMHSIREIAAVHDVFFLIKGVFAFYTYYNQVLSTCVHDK
# Leucine aminopeptidase = biological target: T2, Leucine aminopeptidase (Plasmodium falciparum 3D7, UniProt Q8IL11); assay: P. falciparum M17LAP inhibitors, primary screen, biochemical, fluorogenic H-Leu-NHMec substrate, 1536-well (AID 1619); type: functional
# T2 sequence (Q8IL11 whole entry): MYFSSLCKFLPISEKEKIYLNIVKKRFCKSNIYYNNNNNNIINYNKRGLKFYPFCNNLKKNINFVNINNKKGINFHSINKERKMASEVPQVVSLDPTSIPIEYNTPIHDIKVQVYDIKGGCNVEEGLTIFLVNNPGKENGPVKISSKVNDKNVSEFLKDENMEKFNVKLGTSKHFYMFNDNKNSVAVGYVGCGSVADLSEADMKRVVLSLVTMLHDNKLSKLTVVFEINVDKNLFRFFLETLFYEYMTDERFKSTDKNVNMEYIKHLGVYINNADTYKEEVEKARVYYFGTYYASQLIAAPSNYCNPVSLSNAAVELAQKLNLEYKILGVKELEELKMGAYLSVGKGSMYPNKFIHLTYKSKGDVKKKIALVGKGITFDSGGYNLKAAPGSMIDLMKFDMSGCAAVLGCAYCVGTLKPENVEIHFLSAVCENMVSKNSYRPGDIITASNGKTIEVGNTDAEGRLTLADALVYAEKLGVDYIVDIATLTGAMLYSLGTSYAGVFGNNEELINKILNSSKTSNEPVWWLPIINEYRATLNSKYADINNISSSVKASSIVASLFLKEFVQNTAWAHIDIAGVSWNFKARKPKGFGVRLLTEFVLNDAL
# Procathepsin L = Procathepsin L (Homo sapiens, UniProt P07711); assay: CTSL1 protease inhibition – biochemical, QFRET, 1536-well, counter-screen for M1/M17 aminopeptidase inhibitor project, dose response (AID 2214)
# Chain of Procathepsin L (P07711 whole entry): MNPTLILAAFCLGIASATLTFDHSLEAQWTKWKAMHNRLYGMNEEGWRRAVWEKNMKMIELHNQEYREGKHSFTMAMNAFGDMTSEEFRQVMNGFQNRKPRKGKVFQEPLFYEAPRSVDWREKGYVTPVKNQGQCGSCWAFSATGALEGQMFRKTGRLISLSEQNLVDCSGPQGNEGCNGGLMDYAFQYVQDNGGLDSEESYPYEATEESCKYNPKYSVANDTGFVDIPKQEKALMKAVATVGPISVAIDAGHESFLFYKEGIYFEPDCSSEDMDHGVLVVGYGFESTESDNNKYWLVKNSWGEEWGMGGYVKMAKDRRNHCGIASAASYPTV
# Bcl-2-related protein A1 [12] = biological target: T3, Bcl-2-related protein A1 (Mus musculus, UniProt Q07440); assay: Bfl-1 binding inhibitors, SAR follow-up, biochemical, fluorescence polarization (AID 1070)
# T3 sequence (Q07440 whole entry): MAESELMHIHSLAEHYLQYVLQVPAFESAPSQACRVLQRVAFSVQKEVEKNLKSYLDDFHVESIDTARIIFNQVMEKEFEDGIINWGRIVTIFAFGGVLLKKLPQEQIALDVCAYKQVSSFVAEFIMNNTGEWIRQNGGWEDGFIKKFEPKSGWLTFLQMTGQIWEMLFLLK
# HeLa = assay: ATP-based viability loss in HeLa cells – cell-based, CellTiter-Glo luminescence, cherry-pick samples, cytotoxicity control for MITF activator project, dose response (AID 540259); type: functional; details: Homo sapiens
# Bcl-2-related protein A1 [13] = biological target: T3, Bcl-2-related protein A1; assay: small-molecule antagonists of Bfl-1/BH3 interaction – biochemical, TR-FRET, mouse Bfl-1, confirmation (AID 621);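 also: TR-FRET binding of GST-Bfl-1 to FITC-labelled Bid peptide via terbium antibody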
# [14] = Luminescence Cell-Based Dose Confirmation to Identify Activators of 5'UTR Stem-Loop Driven Alpha-Synuclein mRNA Translation in H4 Neuroglioblastoma Cells. [Related pubchem assays: 1829 (Project Summary), 1814 (Primary HTS)]; type: functional
# [15] = Luminescence Cell-Based Dose Response HTS to Identify Activators of Luciferase Translation or Activity in H4 […] Cells. [Related pubchem assays: 1829 (Project Summary), 1814 (Primary HTS)]; type: functional
# [16] = Luminescence Cell-Based Dose Response to Identify Activators of 5'UTR Stem-Loop Driven Prion Protein mRNA Translation in H4-C Neuroglioblastoma Cells. [Related pubchem assays: 1829 (Project Summary), 1814 (Primary HTS)]; type: functional
# [17] = Luminescence Cell-Based Dose Response to Identify Activators of Luciferase Translation or Activity in H4-C Neuroglioblastoma Cells. [Related pubchem assays: 1829 (Project Summary), 1814 (Primary HTS)]; type: functional
# Protein Tat = Protein Tat (Human immunodeficiency virus type 1 group M subtype B (isolate HXB2)(HIV-1), UniProt P04608); type: functional;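 also: tat binding to TAR RNA read out by fluorescence polarization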
# Chain of Protein Tat (P04608 whole entry): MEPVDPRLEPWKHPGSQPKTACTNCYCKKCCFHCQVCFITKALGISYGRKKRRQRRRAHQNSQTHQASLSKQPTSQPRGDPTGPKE
# [18] = biological target: Eukaryotic translation initiation factor 4E (Mus musculus, UniProt P63073); assay: blockers of eIF4G binding by eIF4E – biochemical, TR-FRET, dose response (AID 855); type: functional;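 also: potency for disrupting eIF4E binding to eIF4GI seen as loss of FRET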
# Chain of Eukaryotic translation initiation factor 4E (P63073 whole entry): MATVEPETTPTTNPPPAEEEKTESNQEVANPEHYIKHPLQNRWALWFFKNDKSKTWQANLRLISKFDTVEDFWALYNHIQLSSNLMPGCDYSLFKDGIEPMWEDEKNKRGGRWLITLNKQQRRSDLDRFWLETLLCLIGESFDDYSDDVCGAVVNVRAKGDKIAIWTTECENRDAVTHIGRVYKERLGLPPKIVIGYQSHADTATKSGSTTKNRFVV
# [19] = biological target: Induced myeloid leukemia cell differentiation protein Mcl-1 (Homo sapiens, UniProt Q07820); type: functional
# Chain of Induced myeloid leukemia cell differentiation protein Mcl-1 (Q07820 whole entry): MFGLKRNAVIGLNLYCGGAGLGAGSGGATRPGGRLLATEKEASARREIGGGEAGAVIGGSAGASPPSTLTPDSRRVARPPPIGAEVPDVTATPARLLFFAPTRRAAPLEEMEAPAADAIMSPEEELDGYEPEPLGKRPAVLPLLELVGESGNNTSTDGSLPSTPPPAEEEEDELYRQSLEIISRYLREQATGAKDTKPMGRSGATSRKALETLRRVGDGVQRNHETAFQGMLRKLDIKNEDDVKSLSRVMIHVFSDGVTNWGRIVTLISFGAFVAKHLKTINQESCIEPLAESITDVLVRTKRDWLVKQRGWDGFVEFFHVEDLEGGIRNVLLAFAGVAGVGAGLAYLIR
# [20] = biological target: T4, Dual specificity protein phosphatase 6 (Rattus norvegicus, UniProt Q64346); assay: inhibition of rat DUSP6 enzyme activity – biochemical, in vitro, primary screen (AID 425)
# T4 sequence (Q64346 whole entry): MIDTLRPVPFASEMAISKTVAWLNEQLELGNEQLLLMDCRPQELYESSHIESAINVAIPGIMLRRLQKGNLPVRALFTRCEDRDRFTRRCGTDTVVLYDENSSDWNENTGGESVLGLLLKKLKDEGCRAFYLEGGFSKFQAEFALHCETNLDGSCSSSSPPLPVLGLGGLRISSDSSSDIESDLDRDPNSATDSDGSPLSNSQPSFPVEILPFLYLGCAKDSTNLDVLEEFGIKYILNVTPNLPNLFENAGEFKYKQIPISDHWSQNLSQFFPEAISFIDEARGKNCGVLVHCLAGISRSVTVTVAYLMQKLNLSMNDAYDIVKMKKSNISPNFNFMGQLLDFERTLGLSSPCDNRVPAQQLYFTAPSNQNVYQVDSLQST
# [21] = biological target: T5, Neuropeptide Y receptor type 1 (Homo sapiens, UniProt P25929); assay: Fluorescence-based counterscreen for agonists of NPY-Y2: cell-based high-throughput dose response assay for agonists of NPY-Y1.; type: functional
# T5 sequence (P25929 whole entry): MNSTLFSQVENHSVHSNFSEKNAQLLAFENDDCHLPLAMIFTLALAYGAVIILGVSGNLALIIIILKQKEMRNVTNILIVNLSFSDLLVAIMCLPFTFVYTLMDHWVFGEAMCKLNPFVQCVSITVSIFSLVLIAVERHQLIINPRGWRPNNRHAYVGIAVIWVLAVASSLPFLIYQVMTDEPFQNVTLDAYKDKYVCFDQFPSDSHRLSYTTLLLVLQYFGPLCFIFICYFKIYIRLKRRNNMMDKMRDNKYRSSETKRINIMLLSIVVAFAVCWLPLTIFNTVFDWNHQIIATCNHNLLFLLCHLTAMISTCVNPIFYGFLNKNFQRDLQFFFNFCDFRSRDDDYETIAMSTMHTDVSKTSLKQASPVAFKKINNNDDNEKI
# [22] = biological target: T6, Neuropeptide Y receptor type 2 (Homo sapiens, UniProt P49146); assay: Fluorescence-based cell-based high-throughput dose response assay for agonists of NPY-Y2. [Related pubchem assays: 1703 (Screening assay (CNGC inhibitors).), 1359 (Screening assay (NPY-Y2 potentiators or agonists).), 1304 (Screening assay (NPY-Y1 potentiators or agonists).), 1710 (Screening assay (NPY-Y2 agonists).), 1791 (Summary AID.)]; type: functional
# T6 sequence (P49146 whole entry): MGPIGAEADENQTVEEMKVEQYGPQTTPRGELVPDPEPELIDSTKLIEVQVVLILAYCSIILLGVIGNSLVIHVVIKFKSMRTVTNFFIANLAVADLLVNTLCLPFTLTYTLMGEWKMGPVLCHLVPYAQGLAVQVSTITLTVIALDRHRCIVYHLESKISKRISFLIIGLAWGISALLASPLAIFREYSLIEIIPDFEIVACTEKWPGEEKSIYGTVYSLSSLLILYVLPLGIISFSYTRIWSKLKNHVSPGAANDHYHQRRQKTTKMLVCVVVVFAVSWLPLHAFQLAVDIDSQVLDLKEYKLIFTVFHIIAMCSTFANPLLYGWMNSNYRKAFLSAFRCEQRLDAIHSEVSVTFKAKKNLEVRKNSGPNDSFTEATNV
# HEK293 = assay: Fluorescence-based counterscreen for potentiators or agonists of NPY-Y2: cell-based high-throughput dose response assay to identify inhibitors of cyclic nucleotide gated ion channel (CNGC) activity. In this assay, the parental HEK293 cell line transfected with a cyclic-nucleotide gated ion channel (CNGC)-based cAMP sensor is used to measure inhibition of isoproterenol-induced CNGC activity by test compound.; type: functional; details: Homo sapiens;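 also: stimulus is 1 µM isoproterenol at EC100 plus PDE inhibitor Ro 20-1724 at 25 µM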
compound,measurement,setting,value
Cc1cc(Nc2ccccc2Cl)nc(-c2ccccc2O)n1,IC50,cells [1],34.7 µM (active)
same,CC50,[2],38.5 µM (active)
CN(Cc1cccc(Cl)c1)C(=O)C1CSC2(C)CCC(=O)N12 (centres undefined),IC50,[3],29.4 µM (active)
same,IC50,[4],> 100 µM (inactive)
O=C(C1CCCN(Cc2ccc(Cl)cc2)C1)N1CCCCC1 (centres undefined),EC50,[5],> 30 µM (not active)
same,EC50,[6],< 0.1 µM (active)
same,EC50,cells [7],0.055 µM (active)
CCc1c(C)nc(N)nc1OCC(F)(F)C(F)F,EC50,[8],> 20 µM (not active)
same,EC50,[9],> 20 µM (not active)
Cc1sc2ncnc(N3CCC(C(=O)N(CC(C)C)c4nc5ccccc5s4)CC3)c2c1C,IC50,[10],> 100 µM (active)
same,CC50,[11],> 40 µM (active)
COc1ccc(S(=O)(=O)NCc2ccco2)cc1-c1nnc2c3ccccc3c(C)nn12,IC50,cells [1],11.2 µM (active)
CCCCCNc1nc(N2CCCC2)c2c(c1C#N)CCN(C)C2,IC50,[10],> 100 µM (active)
same,CC50,[11],> 40 µM (active)
Cc1ccc(-c2cccc(NC(=O)C3C4C=CC(C4)C3C(=O)O)c2)o1 (centres undefined),IC50,Aspartyl aminopeptidase,> 73.5 µM (not active)
same,IC50,Leucine aminopeptidase,3.86 µM (active)
same,IC50,Procathepsin L,> 59.6 µM (not active)
Cc1cccc(NC(=O)CSc2nc(O)c(C#N)c(-c3ccccc3)n2)c1C,IC50,Aspartyl aminopeptidase,> 73.5 µM (not active)
same,IC50,Leucine aminopeptidase,5.37 µM (active)
same,IC50,Procathepsin L,> 59.6 µM (not active)
O=C(NCC(c1cccnc1)N1CCN(c2ccccc2F)CC1)OCc1ccccc1 (centres undefined),EC50,[5],> 60 µM (not active)
same,EC50,[6],< 0.1 µM (active)
same,EC50,cells [7],0.071 µM (active)
c1ccc(-n2nnc(-c3cccnc3)n2)cc1,IC50,Bcl-2-related protein A1 [12],> 100 µM (not active)
same,AC50,HeLa,213 µM (active)
same,IC50,Bcl-2-related protein A1 [13],> 100 µM (not active)
CCOC(=O)c1c(C)[nH]c(N=Nc2ccc(C)cc2)c1C,EC50,[14],0.387 µM (active)
same,EC50,[15],< 0.1 µM (active)
same,EC50,[16],0.305 µM (active)
same,EC50,[17],0.3 µM (active)
Cc1ccc(O)c(-c2cc(-c3ccccc3C)[nH]n2)c1,EC50,[8],8.16 µM (active)
same,EC50,[9],11 µM (active)
CCOC(=O)C1CCN(C(=O)Nc2ccc3nc(-c4ccco4)c(-c4ccco4)nc3c2)CC1,IC50,Protein Tat,2.01 µM (inconclusive)
same,IC50,[18],21.2 µM (inactive)
same,IC50,[19],1.46 µM (active)
same,IC50,[20],> 10 µM (not active)
CCc1cc[n+](/C(C([S-])=Nc2cccc(C)c2)=C(/O)c2ccc(C)c([N+](=O)[O-])c2)cc1,EC50,[21],> 35.4 µM (not active)
same,EC50,[22],> 35.4 µM (not active)
same,EC50,HEK293,> 35.4 µM (not active)
